Measured values published in publication PMC9738927, “A Newly Identified Monoterpenoid-Based Small Molecule Able to Support the Survival of Primary Cultured Dopamine Neurons and Alleviate MPTP-Induced Toxicity In Vivo” (Molecules, 2022).

Tests used:
[1] = Maximum tolerated dose and LD50 (acute oral toxicity); type: in vivo; settings: female, CD-1, mouse, in vivo, po
Procedure: (§1) Healthy animals were randomly divided into groups of four males or four females each. After a 3–4 h starvation, animals were administered 100, 150, 200, or 500 mg/kg PA96 solution (prepared by dissolution in saline containing 0.5% Tween 80) or the vehicle […]. Food was provided for approximately 1–2 h after administration. All mice were continuously monitored for changes in weight, breathing, ptosis, gait disturbance, tremor, and mortality 1 h after administration of PA96 and every 6 h after that. The day of dosing was designated as day 0, and animals were observed until day 14. Each mouse was weighed on days 0, 1, 3, 7, and 14.
(§2) The arithmetic method of Kerber was used to determine the lethal dose fifty (LD50) that killed 50% of studied animals with PA96.
(§3) The LD50 value was determined according to the following equation [24]:LD50 = LD100 − ∑ (z × d)/m(1) where LD50—dose capable of killing 50% of animals; LD100—dose capable of killing 100% of animals; z—half the sum of the number of animals in the experiments with the test of two following doses; d—the difference between two successive doses of administrative PA96; m—total number of animals in each group.

CD-1 female mice = experiment: as above; type: in vivo
Procedure: as §1, §2, §3

[2] = tested on: nigrostriatal dopamine system of MPTP-treated mice; experiment: TH immunohistochemistry of striatum and substantia nigra in MPTP-treated mice; type: in vivo, C57Bl/6 male mice
Procedure: The samples were collected 7 days after the last administration of PA96. Mice were anesthetized using terminal phenobarbital injection (50 mg/kg), perfused trans-cardially with PBS, and then 4% paraformaldehyde in PBS in accordance with. The brains were collected, treated, and embedded into paraffin blocks using the histological complex Microm (Fürth, Germany).
To analyze the effect of PA96 in dopamine neurons in vivo, tyrosine hydroxylase immunohistochemistry was performed as described previously. The PFA-fixed and paraffin-embedded brains were cut into 5 µm thick sections (3 sections per slide), and every fifth slide was taken for TH staining. The sections were deparaffinized, followed by a citrate antigen retrieval procedure. Endogenous peroxidase was inactivated by 30 min incubation with 3% H2O2. The sections were blocked with 5% normal goat serum and then probed with monoclonal TH antibody (1:2000, Millipore Cat# MAB318 Lot# RRID:AB_2201528) overnight at +4 °C. The sections were washed, and biotinylated horse antimouse secondary antibody (1:200, Cat# BA-2001, Vector Laboratories, Burlingame, CA, USA) was applied for 1 h, followed by washing. […]
The sections were scanned with an automated scanner (3DHistech, Budapest, Hungary), and the images were converted to 16-bit grayscale. […] The integrated optical densities in images were measured in ImageJ (NIH) and divided by area in pixels.

With `C=C(C)[C@@H]1CC=C(C)[C@@H](Sc2nc[nH]n2)[C@@H]1O` [PA96, (1R,2R,6S)-2-(1H-1,2,4-triazol-3-ylthio)-3-methyl-6-(prop-1-en-2-yl)cyclohex-3-enol] the LD50 at 14 days [1] was 234 mg/kg, the MTD at 14 days [1] was 100 mg/kg and the “MTD relative to the effective dose” value (CD-1 female mice; female, CD-1, mouse, in vivo, 14 days) was 100 fold. For the same compound, the “dose at which abnormal clinical signs were observed (piloerection, decreased motor activity, ptosis, gait disturbance)” value (CD-1 female mice; female, CD-1, mouse, in vivo, po, 14 days) was ≥ 150 mg/kg, the hazard category (CD-1 female mice; mouse, in vivo) was “Category III (slightly hazardous)” and the “therapeutic dose lower than LD50” value (CD-1 female mice; therapeutic dose vs LD50) was “at least 100 times”. For the same compound, the “increase of the number of TH-positive neurons in SN” value ([2]; 1 mg/kg, compared to MPTP-treated mice) was 37% and the “density of TH-positive fibers in the striatum (loss induced by MPTP)” value ([2]; 1 and 10 mg/kg) was “not alleviated”.
